Test results: patent US20230023092A1, “TREATMENT OF DEPRESSION AND OTHER VARIOUS DISORDERS WITH PSILOCYBIN” (COMPASS […], priority 2019, published 2023)

Test system: healthy subjects
Assay: Phase 1 study: adverse events (TEAEs, MedDRA coded)
Format: in vivo, human
Protocol: A Phase 1 randomized, double-blind, placebo-controlled study to evaluate the effect of psilocybin on cognitive and emotional processing as compared to placebo in healthy volunteers was conducted. The study investigated the short-term (Day 7) and long-term (Day 28) effects of moderate (10 mg) and high doses (25 mg) of psilocybin on key domains of cognition, such as episodic memory, attention, working and spatial memory, social cognition and elements of executive function, including cognitive flexibility.
Each subject was assigned 1 treatment bottle containing 5 capsules packaged in a double-blind fashion, depending on the randomized treatment arm, the bottle contained one of the following: • a. Psilocybin 10 mg: 2×5-mg oral psilocybin capsules plus 3×placebo capsules • b. Psilocybin 25 mg: 5×5-mg oral psilocybin capsules • c. Placebo: 5×placebo capsules
Each 5-mg oral psilocybin capsules comprised 5 mg crystalline psilocybin in the form or Polymorph A, 12.5 mg of SMCC 50, 79.5 mg of SMCC 90, 1 mg sodium starch glycolate, 1 mg colloidal silicon dioxide, and 1 mg sodium stearyl fumarate
Adverse events: Throughout the course of the study, all AEs were monitored and recorded. Each AE was classified according to the following criteria: • i. […] Moderate: The AE produces some impairment of functioning, but is not hazardous to the subject's health. • iii. Severe: The AE produces significant impairment of functioning or incapacitation and is a definite hazard to the subject's health.
Visit 3 (V3): Drug Administration (Day 0): The subject was asked to eat a light breakfast at least two hours prior to coming to the clinic for study drug administration. On Day 0 (V3), the subject underwent the SSTS, had vital signs obtained, medications reviewed, AEs recorded and eligibility reviewed prior to being randomized to study drug. The study drug was administered to up to six subjects simultaneously in individual beds separated by a curtain. The subject was invited to put on eyeshades and headphones, lie down and listen to calming music for the rest of the session (six hours). The subject was supported 1:1 with a chaperone and supervised by the study psychiatrist and lead therapist.
During administration of psilocybin, each subject received one-on-one support from a trained assisting therapist and each dosing session was supervised by a study psychiatrist and a lead therapist. The study drug was administered simultaneously to up to six participants as a single 5-capsule oral dose (10 mg psilocybin: 2×5-mg psilocybin capsules plus 3×placebo capsules; 25 mg psilocybin: 5×5-mg psilocybin capsules; placebo: 5×placebo capsules). Twenty-five dosing sessions were completed, with up to six participants dosed simultaneously per session. Each session lasted approximately 6 to 8 hours with subjects encouraged to relax and engage in introspection for the duration. After the acute effects of the study drug had subsided, subjects were discharged.

SMILES: CN(C)CCc1c[nH]c2cccc(OP(=O)(O)O)c12 [Psilocybin, psilocybin]
- Serious adverse events or adverse events that led to withdrawal (10 mg and 25 mg oral, 12-week study): no serious adverse events or adverse events that led to withdrawal
- AEs deemed potentially related to study treatment, % of AEs of the arm (10 mg oral): 92.6%
- Affect lability, Events (10 mg oral): 5
- Affect lability, N (%) (10 mg oral): 5 (16.7)
- Affect lability, worst severity Mild, Events (10 mg oral): 3
- Affect lability, worst severity Mild, N (%) (10 mg oral): 3 (10.0)
- Affect lability, worst severity Moderate, Events (10 mg oral): 2
- Affect lability, worst severity Moderate, N (%) (10 mg oral): 2 (6.7)
- Affect lability, worst severity Severe, Events (10 mg oral): 0
- Affect lability, worst severity Severe, N (%) (10 mg oral): 0
- Any Selected TEAE, Events (10 mg oral): 106
- Any Selected TEAE, N (%) (10 mg oral): 27 (90.0)
- Any TEAE leading to death, Events (10 mg oral): 0
- Any TEAE leading to death, N (%) (10 mg oral): 0
- Any TEAE leading to study discontinuation, Events (10 mg oral): 0
- Any TEAE leading to study discontinuation, N (%) (10 mg oral): 0
- Any TEAE related to study treatment, Events (10 mg oral): 188
- Any TEAE related to study treatment, N (%) (10 mg oral): 29 (96.7)
- Any TEAE, Events (10 mg oral): 203
- Any TEAE, N (%) (10 mg oral): 29 (96.7)
- Any TEAE, worst severity Mild, Events (10 mg oral): 12
- Any TEAE, worst severity Mild, N (%) (10 mg oral): 6 (20.0)
- Any TEAE, worst severity Moderate, Events (10 mg oral): 38
- Any TEAE, worst severity Moderate, N (%) (10 mg oral): 13 (43.3)
- Any TEAE, worst severity Severe, Events (10 mg oral): 22
- Any TEAE, worst severity Severe, N (%) (10 mg oral): 10 (33.3)
- Any serious TEAE related to study treatment, Events (10 mg oral): 0
- Any serious TEAE related to study treatment, N (%) (10 mg oral): 0
- Any serious TEAE, Events (10 mg oral): 0
- Any serious TEAE, N (%) (10 mg oral): 0
- Any severe TEAE, Events (10 mg oral): 22
- Any severe TEAE, N (%) (10 mg oral): 10 (33.3)
- Change in sustained attention, Events (10 mg oral): 2
- Change in sustained attention, N (%) (10 mg oral): 2 (6.7)
- Depressed mood, Events (10 mg oral): 1
- Depressed mood, N (%) (10 mg oral): 1 (3.3)
- Dissociative identity disorder, Events (10 mg oral): 2
- Dissociative identity disorder, N (%) (10 mg oral): 1 (3.3)
- Emotional disorder, Events (10 mg oral): 2
- Emotional disorder, N (%) (10 mg oral): 2 (6.7)
- Emotional disorder, worst severity Mild, Events (10 mg oral): 1
- Emotional disorder, worst severity Mild, N (%) (10 mg oral): 1 (3.3)
- Emotional disorder, worst severity Moderate, Events (10 mg oral): 1
- Emotional disorder, worst severity Moderate, N (%) (10 mg oral): 1 (3.3)
- Emotional disorder, worst severity Severe, Events (10 mg oral): 0
- Emotional disorder, worst severity Severe, N (%) (10 mg oral): 0
- Euphoric mood, Events (10 mg oral): 7
- Euphoric mood, N (%) (10 mg oral): 7 (23.3)
- Euphoric mood, worst severity Mild, Events (10 mg oral): 0
- Euphoric mood, worst severity Mild, N (%) (10 mg oral): 0
- Euphoric mood, worst severity Moderate, Events (10 mg oral): 6
- Euphoric mood, worst severity Moderate, N (%) (10 mg oral): 6 (20.0)
- Euphoric mood, worst severity Severe, Events (10 mg oral): 1
- Euphoric mood, worst severity Severe, N (%) (10 mg oral): 1 (3.3)
- Fatigue, Events (10 mg oral): 10
- Fatigue, N (%) (10 mg oral): 9 (30.0)
- Fatigue, worst severity Mild, Events (10 mg oral): 6
- Fatigue, worst severity Mild, N (%) (10 mg oral): 6 (20.0)
- Fatigue, worst severity Moderate, Events (10 mg oral): 3
- Fatigue, worst severity Moderate, N (%) (10 mg oral): 2 (6.7)
- Fatigue, worst severity Severe, Events (10 mg oral): 1
- Fatigue, worst severity Severe, N (%) (10 mg oral): 1 (3.3)
- Feeling abnormal, Events (10 mg oral): 4
- Feeling abnormal, N (%) (10 mg oral): 4 (13.3)
- Feeling abnormal, worst severity Mild, Events (10 mg oral): 3
- Feeling abnormal, worst severity Mild, N (%) (10 mg oral): 3 (10.0)
- Feeling abnormal, worst severity Moderate, Events (10 mg oral): 1
- Feeling abnormal, worst severity Moderate, N (%) (10 mg oral): 1 (3.3)
- Feeling abnormal, worst severity Severe, Events (10 mg oral): 0
- Feeling abnormal, worst severity Severe, N (%) (10 mg oral): 0
- Feeling of relaxation, Events (10 mg oral): 5
- Feeling of relaxation, N (%) (10 mg oral): 3 (10.0)
- Gastrointestinal disorders, Events (10 mg oral): 4
- Gastrointestinal disorders, N (%) (10 mg oral): 4 (13.3)
- Gastrointestinal disorders, worst severity Mild, Events (10 mg oral): 3
- Gastrointestinal disorders, worst severity Mild, N (%) (10 mg oral): 3 (10.0)
- Gastrointestinal disorders, worst severity Moderate, Events (10 mg oral): 1
- Gastrointestinal disorders, worst severity Moderate, N (%) (10 mg oral): 1 (3.3)
- Gastrointestinal disorders, worst severity Severe, Events (10 mg oral): 0
- Gastrointestinal disorders, worst severity Severe, N (%) (10 mg oral): 0
- General disorders and administration site conditions, Events (10 mg oral): 27
- General disorders and administration site conditions, N (%) (10 mg oral): 17 (56.7)
- General disorders and administration site conditions, worst severity Mild, Events (10 mg oral): 17
- General disorders and administration site conditions, worst severity Mild, N (%) (10 mg oral): 13 (43.3)
- General disorders and administration site conditions, worst severity Moderate, Events (10 mg oral): 6
- General disorders and administration site conditions, worst severity Moderate, N (%) (10 mg oral): 3 (10.0)
- General disorders and administration site conditions, worst severity Severe, Events (10 mg oral): 1
- General disorders and administration site conditions, worst severity Severe, N (%) (10 mg oral): 1 (3.3)
- Hallucination, Events (10 mg oral): 3
- Hallucination, N (%) (10 mg oral): 3 (10.0)
- Hallucination, auditory, Events (10 mg oral): 4
- Hallucination, auditory, N (%) (10 mg oral): 4 (13.3)
- Hallucination, auditory, worst severity Mild, Events (10 mg oral): 1
- Hallucination, auditory, worst severity Mild, N (%) (10 mg oral): 1 (3.3)
- Hallucination, auditory, worst severity Moderate, Events (10 mg oral): 1
- Hallucination, auditory, worst severity Moderate, N (%) (10 mg oral): 1 (3.3)
- Hallucination, auditory, worst severity Severe, Events (10 mg oral): 2
- Hallucination, auditory, worst severity Severe, N (%) (10 mg oral): 2 (6.7)
- Hallucination, gustatory, Events (10 mg oral): 1
- Hallucination, gustatory, N (%) (10 mg oral): 1 (3.3)
- Hallucination, olfactory, Events (10 mg oral): 1
- Hallucination, olfactory, N (%) (10 mg oral): 1 (3.3)
- Hallucination, tactile, Events (10 mg oral): 2
- Hallucination, tactile, N (%) (10 mg oral): 2 (6.7)
- Hallucination, visual, Events (10 mg oral): 20
- Hallucination, visual, N (%) (10 mg oral): 18 (60.0)
- Hallucination, visual, worst severity Mild, Events (10 mg oral): 3
- Hallucination, visual, worst severity Mild, N (%) (10 mg oral): 3 (10.0)
- Hallucination, visual, worst severity Moderate, Events (10 mg oral): 8
- Hallucination, visual, worst severity Moderate, N (%) (10 mg oral): 8 (26.7)
- Hallucination, visual, worst severity Severe, Events (10 mg oral): 7
- Hallucination, visual, worst severity Severe, N (%) (10 mg oral): 7 (23.3)
- Hallucination, worst severity Mild, Events (10 mg oral): 0
- Hallucination, worst severity Mild, N (%) (10 mg oral): 0
- Hallucination, worst severity Moderate, Events (10 mg oral): 3
- Hallucination, worst severity Moderate, N (%) (10 mg oral): 3 (10.0)
- Hallucination, worst severity Severe, Events (10 mg oral): 0
- Hallucination, worst severity Severe, N (%) (10 mg oral): 0
- Headache, Events (10 mg oral): 12
- Headache, N (%) (10 mg oral): 9 (30.0)
- Headache, worst severity Mild, Events (10 mg oral): 12
- Headache, worst severity Mild, N (%) (10 mg oral): 9 (30.0)
- Headache, worst severity Moderate, Events (10 mg oral): 0
- Headache, worst severity Moderate, N (%) (10 mg oral): 0
- Headache, worst severity Severe, Events (10 mg oral): 0
- Headache, worst severity Severe, N (%) (10 mg oral): 0
- Hypoaesthesia, Events (10 mg oral): 2
- Hypoaesthesia, N (%) (10 mg oral): 2 (6.7)
- Hypoaesthesia, worst severity Mild, Events (10 mg oral): 2
- Hypoaesthesia, worst severity Mild, N (%) (10 mg oral): 2 (6.7)
- Hypoaesthesia, worst severity Moderate, Events (10 mg oral): 0
